According to patent publication US5985636A, “Method and compositions for inhibiting oxidation” (priority 1997, dated 1999):

Test system: lipid oxidation in 1-stearoyl-2-linoleoyl-sn-glycero-3-phosphocholine large unilamellar vesicles (LUVs)
Experiment: Fluorescence assay for antioxidant activity (DPH-PA probe, Fe2+-induced lipid peroxidation in large unilamellar vesicles)
Type: biochemical
Settings: pH 7.0; for % of inhibition (percent inhibition based upon Fe+2 oxidation): 21 min
Text: The fluorescent assay is described first.
Fluorescence assay for antioxidant activity (general): The need to screen large numbers of compounds or extracts for antioxidant activity requires that a model system (or systems) be employed which reasonably well represents the structural and functional characteristics of the substrate in the food product. The test must also be sensitive, rapid, and inexpensive. […] Large unilamellar vesicles consisting of 1-stearoyl-2-linoleoly-sn-glycero-3-phosphocholine are prepared, which closely resemble the properties of biological membranes, one of the primary sites of peroxidation. A fluorescent probe, 1,6-diphenylhexatriene propionic acid, is incorporated into the membranes such that the polar head group anchors the probe near the aqueous interface, while the hydrophobic portion lies parallel to the fatty acid chains. This probe reacts with the free radicals generated during peroxidation, resulting in a decrease in fluorescence intensity with time. A peroxidation initiator (such as ferrous metal ions or the free radical generator AAPH (Azobis-[2-amidinopropane hydrochloride]) is used to start the reaction, and the kinetics of fluorescence decrease are determined in the presence or absence of the antioxidant to be tested. An assay for a compound at a given concentration presently takes only twenty-one minutes, consumes only a few micrograms of lipid, and can be readily conducted with a simple fluorometer.
Briefly, the lipid is dissolved in chloroform, and is dried to a thin film using a rotary evaporator. The dried film is resuspended in an aqueous buffer, and is repeatedly extruded through a polycarbonate filter of 100 nm pore size using a Liposofast piposome extruder (Avestin, Inc., Ottawa, Canada). […] The fluorescent probe, diphenylhexatriene-propionic acid (DPH-PA), is incorporated into the vesicles during preparation at a mole ratio of 1:350 (probe:lipid). For the fluorescence experiments, LUVs containing DPH-PA is suspended at a final concentration of 100 μM in 100 mM NaCl, 50 mM tris-HEPES buffer at pH 7.0. The fluorescent probe is excited at 384 nm and emission is monitored at 423 nm. […] AAPH; the progress is monitored by the decrease of the fluorescence intensity of DPH-PA resulting from reaction with free radicals generated over twenty-one minutes. A plot of the decrease of fluorescence intensity as a function of time will be used to determine the kinetics of lipid oxidation.
^1 --Fuorescent intensity at 21 minutes.
^2 --Percent Inhibition based upon Fe^+2 oxidation.

SMILES	% of inhibition (percent inhibition based upon Fe+2 oxidation) (2 μM) [%]	Fl. int. at 21 min. (fluorescent intensity at 21 minutes) (2 μM)	% of inhibition (percent inhibition based upon Fe+2 oxidation) (concentration not given) [%]	Fl. int. at 21 min. (fluorescent intensity at 21 minutes) (concentration not given)
C[C@@H]1O[C@@H](OC[C@H]2O[C@@H](Oc3cc4c(O)cc(O)cc4[o+]c3-c3ccc(O)c(O)c3)[C@H](O[C@@H]3O[C@H](CO)[C@@H](O)[C@H](O)[C@H]3O)[C@@H](O)[C@@H]2O)[C@H](O)[C@H](O)[C@H]1O [Anthocyanin 1, Cyanidin-3-(2"-O-β-D-glucopyranosyl-6"-O-α-L-rhamnosyl-β-D-glucopyranoside)]	38.6	0.48		
C[C@@H]1O[C@@H](OC[C@H]2O[C@@H](Oc3cc4c(O)cc(O)cc4[o+]c3-c3ccc(O)c(O)c3)[C@H](O)[C@@H](O)[C@@H]2O)[C@H](O)[C@H](O)[C@H]1O [Anthocyanin II, Cyanidin-3-(6"-O-α-L-rhamnopyranosyl-β-D-glucopyranoside)]			70.0	0.7
CC(C)(C)c1cc(O)ccc1O [TBHQ]	90.0	0.84		
COc1ccc(O)c(C(C)(C)C)c1 [BHA]	87.1	0.82		
CCCOC(=O)c1cc(O)c(O)c(O)c1 [Propyl gallate]	78.6	0.76		
Cc1c(C)c2c(c(C)c1O)CCC(C)(CCCC(C)CCCC(C)CCCC(C)C)O2 (centres unmarked) [a-Tocopherol]	0.0	0.21		
Cc1cc(C(C)(C)C)c(O)c(C(C)(C)C)c1 [BHT]	94.3	0.87		
